From US6207596A, “Disposable premoistened wipe containing an antimicrobial protease inhibitor” (The Procter & Gamble Company, priority 1998, dated 2001)

Experiments:
[1] = tested on: Staphylococcus aureus; test: Method 3: antimicrobial activity (NCCLS dilution, MIC), S. aureus; type: cell-based, Staphylococcus aureus ATCC 25923; details: ATCC25923, ATCC 25923, diluted with distilled water, 24 hours at 37° C., read-out: Minimal Inhibitory Concentration
Method: (§1) 3. Method for Determining the Activity of Antimicrobial Agents:
(§2) This method is used to determine the antimicrobial activity of antimicrobial agents. The antimicrobial activity of an antimicrobial agent is tested according to the National Committee for Clinical Laboratory Standards ("NCCLS") Methods. The NCCLS Dilution Antimicrobial Susceptibility Test for Bacteria Which Grow Aerobically is used (i.e.; NCCLS Document M7-A2, 1990).
(§3) Serial two-fold dilutions of the antimicrobial agent are made in trypticase soy broth in a microtiter plate (in the case of hexamidine diisethionate a 1000 μM starting concentration is recommended). Microorganism inocula are prepared by harvesting colonies from agar plates into saline and adjusting the optical density of the solution to be equivalent to the 0.5 McFarland standard. Each microorganism suspension is diluted 1:10 and 10 microliters of the suspension added to each microtiter well.
(§4) The microtiter plates are sealed and incubated for 24 hours at 37° C. The highest dilution of the antimicrobial agent preventing growth is recorded as the minimal inhibitory concentration ("MIC").
(§5) Referring to Table II, the antimicrobial activity of hexamidine diisethionate on three different microorganisms is shown. For purposes of this example, hexamidine diisethionate was diluted with distilled water and evaluated according to Method 3 above. […]

[2] = tested on: Escherichia coli; test: Method 3: antimicrobial activity (NCCLS dilution, MIC), E. coli; type: cell-based; details: ATCC25922, ATCC 25922, diluted with distilled water, 24 hours at 37° C., read-out: Minimal Inhibitory Concentration
Method: as §1, §2, §3, §4, §5

[3] = tested on: fecal trypsin; test: Method 2a: Efficacy of Protease Inhibitors in Fecal Trypsin; type: biochemical; details: pooled infant fecal suspension; 25° C., 405 nm corrected by 490 nm
Method: (§6) Standard in vitro assays for determining enzyme activity, and inhibition of enzyme activity, are well known. The reagents used to conduct these tests are generally commercially available. In general, a simple system comprises an enzyme-specific substrate which, when hydrolyzed by the enzyme, produces a colored product. The activity of the enzyme is measured spectrophotometrically as the degree of development of the colored product (i.e.; the rate of color change) over a predetermined time period.
(§7) The inhibitory activity of an enzyme inhibitor may be calculated according to the following equation: […]
(§8) In the methods, v and vi are measured as the change in absorbency (optical density, OD) at a given wavelength/time (e.g., minutes). […]
Serial dilutions of a protease inhibitor are made using distilled water. A 0.7 ml aliquot of each dilution of protease inhibitor to be evaluated is added to a microcuvette. […]
A volume of 0.1 mL of fecal suspension is added to the microcuvette and mixed. The absorbency of the mixture at 490 nm is measured with the spectrophotometer. […] The absorbency of the mixture at 405 nm is then measured with the spectrophotometer over a period of 5 minutes at 25° C. These […] in order to correct for any background interference. […]

[4] = tested on: Candida albicans; test: Method 3: antimicrobial activity (NCCLS dilution, MIC), C. albicans; type: cell-based, Candida albicans ATCC 10231; details: ATCC10231, ATCC 10231, diluted with distilled water, 24 hours at 37° C., read-out: Minimal Inhibitory Concentration
Method: as §1, §2, §3, §4, §5

[5] = tested on: purified trypsin (human pancreatic trypsin); test: Method 1a: Efficacy of Protease Inhibitors in Purified Trypsin; type: biochemical; details: 25° C., 405 nm; inhibitor diluted in distilled water
Method: as §6, §7, §8
Serial dilutions of a protease inhibitor are made using distilled water. A 50 μl aliquot of each serial dilution of protease inhibitor to be evaluated is added to a microcuvette containing 0.020 ml of trypsin buffer and 0.105 ml of purified trypsin. […]
After incubating, 0.025 ml of the 4 mM N-carbobenzyloxy-arginine-p-nitroanilide substrate solution is added to the microcuvette. […] The absorbency of the mixture is then measured at a wavelength of 405 nm over a period of 10 minutes at a temperature of 25° C. […]

N=C(N)c1ccc(OCCCCCCOc2ccc(C(=N)N)cc2)cc1 [hexamidine diisethionate]
MIC [1]: 3 µM
MIC [2]: 53 µM
IC50 [3]: 2.3 µM
MIC [4]: 13 µM
IC50 [5]: 2.5 µM
